Measured values as given in ChEMBL document CHEMBL1800013, “Small molecule inhibitors of SHP2 tyrosine phosphatase discovered by virtual screening” (Bioorg Med Chem Lett, 2011).
Calls of active or inactive are those of the source. The rule behind the calls is not given here.

Assays:
[1] = molecular target: Dual specificity protein phosphatase 3 (Homo sapiens) (UniProt P51452); experiment: Inhibition of VHR at 100 uM
[2] = molecular target: T1, Dual specificity protein phosphatase 22 (Homo sapiens, UniProt Q9NRW4); experiment: Inhibition of VHX
T1 sequence (Q9NRW4 whole entry): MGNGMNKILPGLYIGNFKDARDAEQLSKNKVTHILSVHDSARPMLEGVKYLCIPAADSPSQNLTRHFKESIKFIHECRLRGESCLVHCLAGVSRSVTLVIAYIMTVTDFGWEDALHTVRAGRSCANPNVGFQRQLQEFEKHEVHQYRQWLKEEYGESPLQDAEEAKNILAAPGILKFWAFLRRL

[3] = molecular target: T2, Receptor-type tyrosine-protein phosphatase C (Homo sapiens, UniProt P08575); experiment: Inhibition of CD45
T2 sequence (P08575 whole entry): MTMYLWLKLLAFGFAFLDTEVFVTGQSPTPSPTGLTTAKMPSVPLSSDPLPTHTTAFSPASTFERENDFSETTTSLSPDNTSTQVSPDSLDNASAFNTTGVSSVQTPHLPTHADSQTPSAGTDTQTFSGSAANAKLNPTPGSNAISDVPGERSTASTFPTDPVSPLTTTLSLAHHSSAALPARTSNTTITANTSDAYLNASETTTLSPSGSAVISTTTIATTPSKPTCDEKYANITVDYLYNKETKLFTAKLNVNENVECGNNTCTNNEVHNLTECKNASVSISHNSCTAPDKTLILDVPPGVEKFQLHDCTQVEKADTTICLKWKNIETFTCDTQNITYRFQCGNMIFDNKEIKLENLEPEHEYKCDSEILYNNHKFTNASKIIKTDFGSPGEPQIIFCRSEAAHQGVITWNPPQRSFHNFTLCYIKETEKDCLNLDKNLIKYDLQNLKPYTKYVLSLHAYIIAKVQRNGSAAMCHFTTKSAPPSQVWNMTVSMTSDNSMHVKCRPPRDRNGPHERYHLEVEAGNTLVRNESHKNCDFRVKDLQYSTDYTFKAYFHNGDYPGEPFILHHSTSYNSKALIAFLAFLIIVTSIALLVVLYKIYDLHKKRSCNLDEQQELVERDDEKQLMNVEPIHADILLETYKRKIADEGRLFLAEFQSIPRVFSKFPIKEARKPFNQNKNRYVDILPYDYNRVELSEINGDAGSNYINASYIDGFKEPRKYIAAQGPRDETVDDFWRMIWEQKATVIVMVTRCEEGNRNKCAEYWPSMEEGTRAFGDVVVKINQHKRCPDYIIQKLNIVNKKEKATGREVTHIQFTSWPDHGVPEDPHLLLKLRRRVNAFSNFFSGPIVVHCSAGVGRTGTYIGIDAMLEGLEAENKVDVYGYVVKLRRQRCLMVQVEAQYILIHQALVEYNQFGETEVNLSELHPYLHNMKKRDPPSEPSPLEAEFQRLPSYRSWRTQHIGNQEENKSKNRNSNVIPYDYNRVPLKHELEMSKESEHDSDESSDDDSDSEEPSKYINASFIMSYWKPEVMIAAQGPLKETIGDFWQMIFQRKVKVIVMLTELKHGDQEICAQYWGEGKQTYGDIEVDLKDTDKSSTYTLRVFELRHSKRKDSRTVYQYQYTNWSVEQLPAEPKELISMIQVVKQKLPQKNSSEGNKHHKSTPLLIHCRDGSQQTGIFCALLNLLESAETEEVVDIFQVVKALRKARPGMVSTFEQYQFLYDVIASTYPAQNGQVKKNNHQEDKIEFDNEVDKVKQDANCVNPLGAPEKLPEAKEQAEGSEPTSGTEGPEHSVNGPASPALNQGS

Chain of Dual specificity protein phosphatase 3 (Homo sapiens) (P51452 whole entry, looked up): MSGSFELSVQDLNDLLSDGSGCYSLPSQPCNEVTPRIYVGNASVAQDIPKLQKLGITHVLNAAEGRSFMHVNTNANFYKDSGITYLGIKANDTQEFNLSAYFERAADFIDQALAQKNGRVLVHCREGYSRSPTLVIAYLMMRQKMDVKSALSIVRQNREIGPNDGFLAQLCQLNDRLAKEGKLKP

**Q.** Which inhibition [1] does the source give for `Cc1cc(S(=O)(=O)O)c(S(=O)(=O)O)cc1N1N=C(C(=O)O)CC1=O` here?
**A.** inactive

**Q.** And the IC50 [2]?
**A.** > 100 µM

**Q.** And the IC50 [3]?
**A.** > 100 µM
